One assay has as its system BDNF. Briefly: Example 3: Western blot of brain tissue, BDNF. It is filed as in vivo, Sprague-Dawley rats. The conditions noted are these: TWI vs AWI vs VI, 3 weeks post-injury. On the procedure:
Male Sprague-Dawley rats received either medial frontal cortex injury or sham surgery. Injections were given 1 and 6 hours post-injury, and every 24 hours for 7 days. Treatment groups (n=8) encompassed injured (I) and sham (S) acute withdrawal (AW), tapered withdrawal (TW) and vehicle (V) treatments. TW injections were progressively halved over the final two treatments. Behavioral testing was conducted post-surgery, mid- and post-withdrawal. Activity boxes were used to investigate vertical movements and exploration: Sensory neglect and anxiety behaviors were also analyzed. Brain harvesting was performed at 8 days or 3 weeks post-injury. Perfused tissue sections were analyzed for lesion volume and immunohistochemical response. Fresh brain tissue was flash frozen in chilled 2-methyl butane, and then homogenized for Western blot analysis.
Background: A western blot detects proteins with antibodies after separation by electrophoresis.

Assay [1] deals with bilateral contusions of the medial prefrontal cortex. Description: Example 1: Morris water maze (MWM) task after TBI. In kind it is in vivo, Sprague-Dawley rats. How it is done:
Male Sprague-Dawley rats (300 g) were housed individually in wire cages and kept on a reverse light-dark cycle (0800-2000 h). […] All procedures involving animals conformed to guidelines set forth in the Guide for the Care and Use of Laboratory Animals (U.S. Department of Health and Human Services, Pub no. 85-23, 1985) and were approved by the Emory University Institutional Animal Care and Use Committee.
Bilateral contusions of the medial prefrontal cortex were created by a pneumatic impactor device as previously described. Briefly, rats were given anesthetized with ketamine/xylazine (90 mg/kg; 10 mg/kg) and placed in a stereotaxic apparatus. A craniectomy (diameter 6 mm) was made over the midline of the prefrontal cortex with its center 1.5 mm AP to bregma. After removal of the bone, the tip of the impactor (diameter 5 mm) was moved to +3.0 mm AP; 1.0 mm ML (from bregma), and checked for adequate clearance. Trauma was produced by pneumatically activating the piston to impact −2.0 mm DV (from dura) at a velocity of 3 m/s with a brain contact time of 0.5 seconds.
Control animals received injections of vehicle at similar time-points. Animals were coded with regard to surgery and treatment to prevent experimenter bias during behavioral testing and histological examination.
Experienced individuals who were blind to treatment conditions of the study conducted all histological and behavioral analyses. All data were tested for normality and homoschedasticity before being analyzed by parametric analysis of variance (ANOVA). MWM results were analyzed using separate mixed-factorial (4 groups×5 days) analysis of variance (ANOVA) on each of the two 5-day testing periods (acquisition and retention respectively). Results of the BSN task were analyzed using the mixed-factorial ANOVA (4 groups×2 post-injury trials). Histological comparisons on mean densitometry recordings, area measurements, and cell counts were made using a one-way ANOVA. All between-group comparisons were made using multiple Tukey post-hoc tests (p<0.05) when the overall ANOVA was significant ([…]) between groups. Pearson r coefficients were calculated to determine whether significant correlations could be detected between histological (e.g., lesion size and cellular density) and behavioral parameters (e.g., acquisition and retention of the MWM task and measures of sensory neglect).
Beginning one week after surgery, spatial learning ability was assessed in the Morris water maze (MWM) task described previously. […] Animals were placed in the pool (nose facing the pool-wall) at one of four randomly determined starting positions (e.g.: N, S, E, W). […] Swim speed measures were recorded daily in order to delineate motor dysfunction from learning impairment.

Consider 1 compound from US8614203B2, “Methods for the treatment of a central nervous system injury via a tapered administration protocol” (Emory University, priority 2005, dated 2013).

As to `CC(=O)[C@H]1CC[C@H]2[C@@H]3CCC4=CC(=O)CC[C@]4(C)[C@H]3CC[C@]12C` [progesterone, pregn-4-ene-3,20-dione], the BDNF expression entry in the assay on BDNF is “increased for TWI over AWI over VI at 3 weeks post-injury”. In addition, the “MWM spatial learning performance, second 5-day trial block (retention)” value in assay [1] (4 mg/kg in peanut oil, 5 days (LP5)) is given as “improved spatial learning performance”. For the same compound, the “MWM spatial learning performance, initial 5-day acquisition phase” value in assay [1] (4 mg/kg in peanut oil, LP3 and LP5 (all injured groups)) is “deficits in spatial learning performance as compared to control animals”. Further, in assay [1] (4 mg/kg, 5 days (LP5), last 2 days of second phase of MWM testing), the “thigmotaxic (wall-hugging) swim patterns in MWM” value is recorded as “reduction of thigmotaxic behavior”. Moreover, the “swim speed in MWM” value in assay [1] (4 mg/kg, LP3 and LP5, any day of testing) is listed as “no between-group differences on swim speed measurements”.
